How the values were obtained:
[1] = tested on: Escherichia coli ATCC 10536; experiment: Standardised biofilm detachment assay (96 well microtitre plate, crystal violet OD540) in quarter strength GPC base Formula A; format: cell-based; conditions: for Group (PDV class: active / non-active / antagonist to biofilm detachment): ingredient as 1 of 4 equal-weight ingredients (other 3 Group B), perfume 0.25% w/w in quarter strength GPC base Formula A, 20 min 21° C., flavour ingredients classed in toothpaste base
[2] = tested on: Escherichia coli ATCC 10536; experiment: Biofilm detachment assay in quarter strength modified transparent silica toothpaste base (Formula B); format: cell-based; conditions: positive control, Example 3
Method: The procedure described in example 1(a) was repeated but wherein flavour compositions comprising flavour ingredients from the oral care palette to be tested were prepared. The compositions were added to a modified transparent silica toothpaste base (diluted to quarter strength) together with de-ionised water to produce test mixtures with the composition as set out in Formula B below. [table] A percentage detachment value (PDV) for each test mixture was then calculated using the following formula: PDV=100−([OD540 for Test Mixture÷OD540 for Water Control]×100). […] The PDV scores were therefore adjusted to account for base influences on flavour behaviour and Detachment Index (DI) values quoted for each flavour composition.

| Compound | Group (PDV class: active / non-active / antagonist to biofilm detachment) [1] | PDV ([1]; positive control, 2% w/w in deionised water) | PDV [2] |
| --- | --- | --- | --- |
| CC(=O)C1=C(C)C2CC3(C1)C(C)CCC3C2(C)C (stereo not drawn) [1-(2,6,6,8-tetramethyltricyclo [5.3.1.0̂{1,5}]undec-8-en-9-yl)ethanone] | A (Group A materials that assist biofilm detachment are defined as those having a PDV (as defined above) of at least 9) | – | – |
| CC1(C)CCCC2(C)C1CCC1(C)OCCC12 (stereo not drawn) [3a,6,6,9a-tetramethyldodecahydronaphtho[2,1-{b}]furan] | B (Group B materials that are non-active to biofilm detachment are defined as those having a PDV (as defined above) of less than 9 and greater than 0) | – | – |
| CCCCCCCCCCCCOS(=O)(=O)[O-].[Na+] [SLS, sodium lauryl sulphate, reference compound] | – | about 80% | about 80% |
| COc1ccc(CC(C)C=O)cc1 (stereo not drawn) [2-methyl-3-[4-(methyoxy)phenyl]propanal] | C (Group C materials that are antagonistic to biofilm detachment are defined as those having a PDV (as defined above) of less than or equal to 0) | – | – |
| CCC(=O)OC1CC2CC1C1C=CCC21 (stereo not drawn) [tricyclo[5.2.1.0̂{2,6}]dec-4-en-8-yl propanoate] | B (Group B materials that are non-active to biofilm detachment are defined as those having a PDV (as defined above) of less than 9 and greater than 0) | – | – |

Source: patent US20140235520A1, “Perfume Compositions” (Givaudan Nederland Services B.V., priority 2005, published 2014)
